Here are results for 35 compounds from patent US7612211B2, “Benzimidazole TRPV1 inhibitors” (Janssen Pharmaceutica N.V., priority 2006, dated 2009).

Structures are written as SMILES.

The experiment addresses T1, hTRPV1 (Homo sapiens, UniProt Q8NER1).
T1 construct: expressed in transfected cells; host or cells: HEK293
Kind of experiment: Human TRPV1 (hTRPV1) functional assay, FLIPR intracellular Ca2+, capsaicin challenge. Format: cell-based. The conditions noted are these: HEK293 cells expressing hTRPV1, capsaicin 0.030 μM challenge; for inhibition at 0.5 µM: test concentration of 0.5 μm, read-out: percent inhibition (symbol a); for IC50: derived from a variety of test concentrations, read-out: IC50 value (symbol c). In a few lines:
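HEK293 cells expressing the channel, loaded with Calcium 3 dye, were exposed to compounds for 5 min before capsaicin 0.030 μM (~80% maximal). FLIPR Ca2+ read; IC50/EC50 from quadruplicate concentration-response, or percent inhibition at 0.5 μm or 0.2 μm.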

T1 sequence (Q8NER1 whole entry): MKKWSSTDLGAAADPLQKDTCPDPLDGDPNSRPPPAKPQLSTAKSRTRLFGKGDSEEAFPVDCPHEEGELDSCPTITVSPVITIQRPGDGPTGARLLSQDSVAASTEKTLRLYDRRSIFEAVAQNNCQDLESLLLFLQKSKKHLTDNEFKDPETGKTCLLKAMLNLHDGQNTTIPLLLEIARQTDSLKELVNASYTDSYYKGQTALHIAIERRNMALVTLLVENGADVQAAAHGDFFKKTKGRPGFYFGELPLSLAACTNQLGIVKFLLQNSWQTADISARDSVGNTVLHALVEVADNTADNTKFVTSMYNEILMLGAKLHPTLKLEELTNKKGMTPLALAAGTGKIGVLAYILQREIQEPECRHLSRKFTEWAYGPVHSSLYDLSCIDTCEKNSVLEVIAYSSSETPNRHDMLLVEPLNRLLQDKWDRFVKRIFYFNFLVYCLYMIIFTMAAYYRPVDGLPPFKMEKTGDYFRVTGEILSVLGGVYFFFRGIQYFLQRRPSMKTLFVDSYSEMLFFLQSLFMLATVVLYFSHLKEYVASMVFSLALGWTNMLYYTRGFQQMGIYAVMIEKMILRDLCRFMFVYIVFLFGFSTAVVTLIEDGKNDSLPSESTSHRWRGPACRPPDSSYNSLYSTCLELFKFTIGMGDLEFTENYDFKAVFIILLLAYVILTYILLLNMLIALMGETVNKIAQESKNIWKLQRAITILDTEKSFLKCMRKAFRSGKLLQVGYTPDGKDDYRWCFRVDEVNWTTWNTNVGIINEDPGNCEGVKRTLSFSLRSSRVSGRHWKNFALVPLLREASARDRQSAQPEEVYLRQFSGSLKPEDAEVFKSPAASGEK

As usually defined, the inhibition is the drop in the measured response relative to a control, in per cent. On to `CS(=O)(=O)c1cccc(-c2ccc3[nH]c(COc4ccc(C(F)(F)F)cc4)nc3c2)c1` [Cpd 99, 5-(3-methanesulfonyl-phenyl)-2-(4-trifluoromethyl-phenoxymethyl)-1H-benzoimidazole], for which the inhibition at 0.5 µM amounted to 14%.

Turning to `CS(=O)(=O)c1ccc(-c2ccc3[nH]c(COc4ccc(C(F)(F)F)cc4)nc3c2)cc1` [Cpd 100, 5-(4-methanesulfonyl-phenyl)-2-(4-trifluoromethyl-phenoxymethyl)-1H-benzoimidazole], the inhibition at 0.5 µM is 13%.

Turning to `CS(=O)(=O)Nc1cccc(-c2ccc3[nH]c(COc4ccc(C(F)(F)F)cc4)nc3c2)c1` [Cpd 102, N-{3-[2-(4-trifluoromethyl-phenoxymethyl)-1H-benzoimidazol-5-yl]-phenyl}-methanesulfonamide], the inhibition at 0.5 µM is 8%.

For the compound `CS(=O)(=O)Nc1ccc(-c2ccc3[nH]c(COc4ccc(C(F)(F)F)cc4)nc3c2)cc1` [Cpd 103, N-{4-[2-(4-trifluoromethyl-phenoxymethyl)-1H-benzoimidazol-5-yl]-phenyl}-methanesulfonamide], the inhibition at 0.5 µM came out at 7%.

Take `NS(=O)(=O)c1cccc(-c2ccc3[nH]c(COc4ccc(C(F)(F)F)cc4)nc3c2)c1` [Cpd 104, 3-[2-(4-trifluoromethyl-phenoxymethyl)-1H-benzoimidazol-5-yl]-benzenesulfonamide]: the inhibition at 0.5 µM amounted to 8%.

Regarding `NS(=O)(=O)c1ccc(-c2ccc3[nH]c(COc4ccc(C(F)(F)F)cc4)nc3c2)cc1` [Cpd 105, 4-[2-(4-trifluoromethyl-phenoxymethyl)-1H-benzoimidazol-5-yl]-benzenesulfonamide], the inhibition at 0.5 µM came out at 7%.

A word on the IC50: it is the concentration needed to halve the response being measured. As to `CN(C)S(=O)(=O)c1ccccc1-c1ccc2[nH]c(COc3ccc(C(F)(F)F)cc3)nc2c1` [Cpd 106, N,N-dimethyl-2-[2-(4-trifluoromethyl-phenoxymethyl)-1H-benzoimidazol-5-yl]-benzenesulfonamide], the IC50 is 0.003 µM and the inhibition at 0.5 µM is 94%.

Consider `Cc1ccccc1-c1ccc2[nH]c(COc3ccc(C(F)(F)F)cc3)nc2c1` [Cpd 107, 5-o-tolyl-2-(4-trifluoromethyl-phenoxymethyl)-1H-benzoimidazole], for which the inhibition at 0.5 µM is 16%.

As to `Cc1cccc(-c2ccc3[nH]c(COc4ccc(C(F)(F)F)cc4)nc3c2)c1` [Cpd 108, 5-m-tolyl-2-(4-trifluoromethyl-phenoxymethyl)-1H-benzoimidazole], the inhibition at 0.5 µM worked out at 10%.

Regarding `Cc1ccc(-c2ccc3[nH]c(COc4ccc(C(F)(F)F)cc4)nc3c2)cc1` [Cpd 109, 5-p-tolyl-2-(4-trifluoromethyl-phenoxymethyl)-1H-benzoimidazole], the inhibition at 0.5 µM was determined as 3%.

With `CC(O)c1ccccc1-c1ccc2[nH]c(COc3ccc(C(F)(F)F)cc3)nc2c1` (stereo not drawn) [Cpd 110, 1-{2-[2-(4-trifluoromethyl-phenoxymethyl)-1H-benzoimidazol-5-yl]-phenyl}-ethanol], the IC50 turned out to be 0.058 µM and the inhibition at 0.5 µM was 98%.

`CC(O)c1cccc(-c2ccc3[nH]c(COc4ccc(C(F)(F)F)cc4)nc3c2)c1` (stereo not drawn) [Cpd 111, 1-{3-[2-(4-trifluoromethyl-phenoxymethyl)-1H-benzoimidazol-5-yl]-phenyl}-ethanol]: the inhibition at 0.5 µM was 18%.

For `CC(O)c1ccc(-c2ccc3[nH]c(COc4ccc(C(F)(F)F)cc4)nc3c2)cc1` (stereo not drawn) [Cpd 112, 1-{4-[2-(4-trifluoromethyl-phenoxymethyl)-1H-benzoimidazol-5-yl]-phenyl}-ethanol], the inhibition at 0.5 µM was found to be 1%.

As to `CC(=O)Nc1ccccc1-c1ccc2[nH]c(COc3ccc(C(F)(F)F)cc3)nc2c1` [Cpd 113, N-{2-[2-(4-trifluoromethyl-phenoxymethyl)-1H-benzoimidazol-5-yl]-phenyl}-acetamide], the inhibition at 0.5 µM turned out to be 42%.

As to `CC(=O)Nc1cccc(-c2ccc3[nH]c(COc4ccc(C(F)(F)F)cc4)nc3c2)c1` [Cpd 114, N-{3-[2-(4-trifluoromethyl-phenoxymethyl)-1H-benzoimidazol-5-yl]-phenyl}-acetamide], the inhibition at 0.5 µM came to 6%.

As to `CC(=O)Nc1ccc(-c2ccc3[nH]c(COc4ccc(C(F)(F)F)cc4)nc3c2)cc1` [Cpd 115, N-{4-[2-(4-trifluoromethyl-phenoxymethyl)-1H-benzoimidazol-5-yl]-phenyl}-acetamide], the inhibition at 0.5 µM was determined as 14%.

For the compound `OCc1ccccc1-c1ccc2[nH]c(COc3ccc(C(F)(F)F)cc3)nc2c1` [Cpd 116, {2-[2-(4-trifluoromethyl-phenoxymethyl)-1H-benzoimidazol-5-yl]-phenyl}-methanol], the IC50 turned out to be 0.0081 µM and the inhibition at 0.5 µM was 99%.

`OCc1cccc(-c2ccc3[nH]c(COc4ccc(C(F)(F)F)cc4)nc3c2)c1` [Cpd 117, {3-[2-(4-trifluoromethyl-phenoxymethyl)-1H-benzoimidazol-5-yl]-phenyl}-methanol]: the inhibition at 0.5 µM was determined as 13%.

Take `OCc1ccc(-c2ccc3[nH]c(COc4ccc(C(F)(F)F)cc4)nc3c2)cc1` [Cpd 118, {4-[2-(4-trifluoromethyl-phenoxymethyl)-1H-benzoimidazol-5-yl]-phenyl}-methanol]: the inhibition at 0.5 µM amounted to 2%.

With `Oc1ccccc1-c1ccc2[nH]c(COc3ccc(C(F)(F)F)cc3)nc2c1` [Cpd 119, 2-[2-(4-trifluoromethyl-phenoxymethyl)-1H-benzoimidazol-5-yl]-phenol], the inhibition at 0.5 µM was 14%.

In the case of `Oc1cccc(-c2ccc3[nH]c(COc4ccc(C(F)(F)F)cc4)nc3c2)c1` [Cpd 120, 3-[2-(4-trifluoromethyl-phenoxymethyl)-1H-benzoimidazol-5-yl]-phenol], the inhibition at 0.5 µM stood at 15%.

Regarding `Oc1ccc(-c2ccc3[nH]c(COc4ccc(C(F)(F)F)cc4)nc3c2)cc1` [Cpd 121, 4-[2-(4-trifluoromethyl-phenoxymethyl)-1H-benzoimidazol-5-yl]-phenol], the inhibition at 0.5 µM worked out at 9%.

With `Nc1ccccc1-c1ccc2[nH]c(COc3ccc(C(F)(F)F)cc3)nc2c1` [Cpd 122, 2-[2-(4-trifluoromethyl-phenoxymethyl)-1H-benzoimidazol-5-yl]-phenylamine], the inhibition at 0.5 µM is 21%.

On to `Nc1cccc(-c2ccc3[nH]c(COc4ccc(C(F)(F)F)cc4)nc3c2)c1` [Cpd 123, 3-[2-(4-trifluoromethyl-phenoxymethyl)-1H-benzoimidazol-5-yl]-phenylamine], for which the inhibition at 0.5 µM was 7%.

For the compound `Nc1ccc(-c2ccc3[nH]c(COc4ccc(C(F)(F)F)cc4)nc3c2)cc1` [Cpd 124, 4-[2-(4-trifluoromethyl-phenoxymethyl)-1H-benzoimidazol-5-yl]-phenylamine], the inhibition at 0.5 µM was 12%.

On to `CNS(=O)(=O)c1ccc(-c2ccc3[nH]c(COc4ccc(C(F)(F)F)cc4)nc3c2)cc1` [Cpd 125, N-methyl-4-[2-(4-trifluoromethyl-phenoxymethyl)-1H-benzoimidazol-5-yl]-benzenesulfonamide], for which the inhibition at 0.5 µM stood at 11%.

For the compound `FC(F)(F)c1ccc(OCc2nc3cc(-c4ccccc4)ccc3[nH]2)cc1` [Cpd 126, 5-phenyl-2-(4-trifluoromethyl-phenoxymethyl)-1H-benzoimidazole], the inhibition at 0.5 µM turned out to be 4%.

With `COC(=O)c1ccccc1-c1ccc2[nH]c(COc3ccc(C(F)(F)F)cc3)nc2c1` [Cpd 127, 2-[2-(4-trifluoromethyl-phenoxymethyl)-1H-benzoimidazol-5-yl]-benzoic acid methyl ester], the IC50 was found to be 0.0243 µM and the inhibition at 0.5 µM was found to be 85%.

Consider `CN(C)S(=O)(=O)c1cccc(-c2ccc3[nH]c(COc4ccc(C(F)(F)F)cc4)nc3c2)c1` [Cpd 128, N,N-dimethyl-3-[2-(4-trifluoromethyl-phenoxymethyl)-1H-benzoimidazol-5-yl]-benzenesulfonamide], for which the inhibition at 0.5 µM was 13%.

As to `CN(C)S(=O)(=O)c1ccc(-c2ccc3[nH]c(COc4ccc(C(F)(F)F)cc4)nc3c2)cc1` [Cpd 129, N,N-dimethyl-4-[2-(4-trifluoromethyl-phenoxymethyl)-1H-benzoimidazol-5-yl]-benzenesulfonamide], the inhibition at 0.5 µM was 8%.

Regarding `COC(=O)c1cccc(-c2ccc3[nH]c(COc4ccc(C(F)(F)F)cc4)nc3c2)c1` [Cpd 130, 3-[2-(4-trifluoromethyl-phenoxymethyl)-1H-benzoimidazol-5-yl]-benzoic acid methyl ester], the inhibition at 0.5 µM was 11%.

Regarding `COC(=O)c1ccc(-c2ccc3[nH]c(COc4ccc(C(F)(F)F)cc4)nc3c2)cc1` [Cpd 131, 4-[2-(4-trifluoromethyl-phenoxymethyl)-1H-benzoimidazol-5-yl]-benzoic acid methyl ester], the inhibition at 0.5 µM was 5%.

On to `NS(=O)(=O)c1ccc(C(F)(F)F)cc1-c1ccc2[nH]c(COc3ccc(C(F)(F)F)cc3)nc2c1` [Cpd 132, 4-trifluoromethyl-2-[2-(4-trifluoromethyl-phenoxymethyl)-1H-benzoimidazol-5-yl]-benzenesulfonamide], for which the IC50 stood at 0.085 µM and the inhibition at 0.5 µM came out at 100%.

Consider `NS(=O)(=O)c1cc(C(F)(F)F)ccc1-c1ccc2[nH]c(COc3ccc(C(F)(F)F)cc3)nc2c1` [Cpd 133, 5-trifluoromethyl-2-[2-(4-trifluoromethyl-phenoxymethyl)-1H-benzoimidazol-5-yl]-benzenesulfonamide], for which the half-inhibitory concentration (IC50) turned out to be 0.105 µM and the inhibition at 0.5 µM worked out at 92%.

`NS(=O)(=O)c1ccc(F)cc1-c1ccc2[nH]c(COc3ccc(C(F)(F)F)cc3)nc2c1` [Cpd 134, 4-fluoro-2-[2-(4-trifluoromethyl-phenoxymethyl)-1H-benzoimidazol-5-yl]-benzenesulfonamide]: the IC50 turned out to be 0.016 µM and the inhibition at 0.5 µM came to 98%.
